Columns and labels:
antithrombin (AT) = antithrombin (AT) (Homo sapiens, UniProt P01008); assay: Binding affinity of LMWHs to antithrombin by affinity co-electrophoresis; conditions: 35S-labeled compounds; average of two or three determinations
Method: The dissociation constant (Kd) of each sample and AT was determined using affinity co-electrophoresis (Lee, M. K. & Lander, A. D., Proc. Natl. Acad. Sci. USA 88, 2768-2772, 1991). Approximately 1500-2500 cpm of ^35S-labeled LMWH Compounds 1 to 5 was loaded per lane with zones of AT at concentrations 0, 8, 16, 32, 60, 120, 250, 500 and 1000 nM. The gel was performed at 300 mA for 2 h, dried and analyzed on a Phospholmager (Amersham Biosciences, Wauwatosa, Wis., United States of America Storm 860). The retardation coefficient was calculated at R=(M0−M)/M0, where M0 is the mobility of the polysaccharide through the zone without AT, and M is the mobility of the sample through each separation zone. The retardation coefficient was then plotted against the retardation coefficient divided by its respective concentration of AT. The slope of the line represents −1/Kd.

[1] = target: T1, Stabilin-2 receptor (190-HARE) (Homo sapiens, UniProt Q8WWQ8); assay: Stabilin-2 mediated endocytosis of 35S-labeled LMWHs in Flp-In-293 cells; type: cell-based; conditions: Flp-In-293 cells expressing 190-HARE, 3 h at 37° C. (FIG. 5)
T1 construct: The Stabilin-2 cell line expressing the 190-HARE; expressed in transfected cells
T1 sequence (Q8WWQ8 1136-2551 limits assumed): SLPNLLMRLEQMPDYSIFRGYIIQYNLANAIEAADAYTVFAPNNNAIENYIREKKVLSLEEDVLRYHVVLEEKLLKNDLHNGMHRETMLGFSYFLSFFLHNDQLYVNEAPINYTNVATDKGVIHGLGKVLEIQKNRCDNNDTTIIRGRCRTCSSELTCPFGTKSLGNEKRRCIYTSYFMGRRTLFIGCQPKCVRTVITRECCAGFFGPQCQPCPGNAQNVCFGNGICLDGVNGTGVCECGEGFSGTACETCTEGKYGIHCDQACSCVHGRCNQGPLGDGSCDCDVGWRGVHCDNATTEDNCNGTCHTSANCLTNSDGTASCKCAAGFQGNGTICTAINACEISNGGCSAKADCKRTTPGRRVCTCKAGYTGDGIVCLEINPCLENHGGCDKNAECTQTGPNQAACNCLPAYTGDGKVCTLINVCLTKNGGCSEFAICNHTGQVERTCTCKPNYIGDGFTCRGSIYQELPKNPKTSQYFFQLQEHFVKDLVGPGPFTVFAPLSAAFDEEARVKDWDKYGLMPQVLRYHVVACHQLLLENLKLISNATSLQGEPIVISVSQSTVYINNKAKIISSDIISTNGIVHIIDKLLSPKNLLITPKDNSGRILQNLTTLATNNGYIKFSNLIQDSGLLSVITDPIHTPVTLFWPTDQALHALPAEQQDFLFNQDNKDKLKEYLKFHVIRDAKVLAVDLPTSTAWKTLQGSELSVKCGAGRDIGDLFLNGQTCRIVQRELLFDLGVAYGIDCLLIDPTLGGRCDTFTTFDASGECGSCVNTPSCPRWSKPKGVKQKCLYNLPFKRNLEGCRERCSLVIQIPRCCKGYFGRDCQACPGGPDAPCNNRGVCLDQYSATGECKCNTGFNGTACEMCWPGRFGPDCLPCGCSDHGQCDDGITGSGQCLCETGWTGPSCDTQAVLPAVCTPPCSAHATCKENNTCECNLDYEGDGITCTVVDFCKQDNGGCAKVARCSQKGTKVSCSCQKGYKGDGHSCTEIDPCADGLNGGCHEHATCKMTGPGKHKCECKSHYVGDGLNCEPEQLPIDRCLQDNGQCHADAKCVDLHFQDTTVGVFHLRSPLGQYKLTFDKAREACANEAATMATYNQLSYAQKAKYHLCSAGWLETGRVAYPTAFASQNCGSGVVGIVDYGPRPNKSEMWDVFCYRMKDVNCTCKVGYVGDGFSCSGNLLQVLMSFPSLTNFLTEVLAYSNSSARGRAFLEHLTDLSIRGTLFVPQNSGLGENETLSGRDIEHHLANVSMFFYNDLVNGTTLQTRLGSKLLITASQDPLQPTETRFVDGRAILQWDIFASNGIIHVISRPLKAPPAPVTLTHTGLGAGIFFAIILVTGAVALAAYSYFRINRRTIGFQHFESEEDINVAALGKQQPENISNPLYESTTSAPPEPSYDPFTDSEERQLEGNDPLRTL
Method: FIG. 5 is a histogram of endocytosis of ^35S-labeled synthetic LMWHs in Flp-In-293 cells. The cells were stably transfected with the plasmid expressing the Stabilin-2 receptor (190-HARE). The internalization value was calculated by subtracting the nonspecific internalization background from the total internalization of a ^35S-labeled Compound. The background was determined by mixing the ^35S-labeled Compound with at least 100-fold molecular excess of unlabeled UFH.
The Stabilin-2 cell line expressing the 190-HARE (Harris et al., J. Biol. Chem. 279, 36201-36209, 2004) was grown to 90% confluency with DMEM+8% FBS+50 μgml^−1 Hygromycin B in 24-well plates for at least 2 days prior to the experiment in a standard tissue culture incubator. Endocytosis medium (DMEM+0.05% BSA) containing a known amount of ^35S-labeled LMWH Compound, LOVENOX®, or UFH was added to each well in triplicate and allowed to incubate with the cells for 3 h at 37° C., 5% CO2. Receptor specific internalization was assessed by incubating each radiolabeled ligand with at least a 100-fold excess of unlabeled UFH. The cells were then washed with Hank's Balanced Salt Solution (1.26 mM CaCl2, 5.33 mM KCl, 0.44 mM KH2PO4, 0.5 mM MgCl2-6H2O, 0.41 mM MgSO4-7H2O, 138 mM NaCl, 4.0 mM NaHCO3, […], 0.3 mM phenol red, pH 7.2) three-times, and cells were lysed in 0.4 ml 0.3 N NaOH. 0.35 ml of the cell lysate mixture was mixed with 4 ml scintillation fluid (Perkin Elmer, Waltham, Mass., United States of America) and radioactivity was measured by a Beckman Coulter LS6500 scintillation counter. The remaining 0.05 ml cell lysate was used to determine protein levels using the Bradford reagent (Sigma-Aldrich). The data was calculated as the percentage of specific CPM internalized of the total amount added per μg cell lysate protein±standard deviation.

Sequence of antithrombin (AT) (P01008 33-464): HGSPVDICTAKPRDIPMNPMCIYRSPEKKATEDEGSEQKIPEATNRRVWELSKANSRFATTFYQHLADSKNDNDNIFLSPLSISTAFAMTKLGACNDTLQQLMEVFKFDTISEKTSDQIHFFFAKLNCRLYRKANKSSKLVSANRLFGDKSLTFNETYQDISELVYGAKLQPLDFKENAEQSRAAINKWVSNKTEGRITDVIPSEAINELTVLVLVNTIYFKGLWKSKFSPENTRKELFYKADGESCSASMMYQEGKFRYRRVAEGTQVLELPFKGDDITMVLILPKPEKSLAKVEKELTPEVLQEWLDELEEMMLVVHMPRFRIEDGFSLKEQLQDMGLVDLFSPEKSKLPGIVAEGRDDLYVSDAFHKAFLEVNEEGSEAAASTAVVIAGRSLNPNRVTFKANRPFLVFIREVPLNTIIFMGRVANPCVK

## O=C(O)C1OC(OC2C(COS(=O)(=O)O)OC(OC3C(C(=O)O)OC(OC4C(COS(=O)(=O)O)OC(OC5C(C(=O)O)OC(Oc6ccc([N+](=O)[O-])cc6)C(O)C5O)C(NS(=O)(=O)O)C4O)C(OS(=O)(=O)O)C3O)C(NS(=O)(=O)O)C2OS(=O)(=O)O)C(O)C(O)C1OC1OC(COS(=O)(=O)O)C(O)C(O)C1NS(=O)(=O)O (stereo not shown) [Compound 1]
Antithrombin (AT)
  Kd: 7 nM
[1]
  endocytosis mediated by Stabilin-2 (internalization): very low internalization

## O=C(O)C1OC(OC2C(COS(=O)(=O)O)OC(OC3C(C(=O)O)OC(OC4C(COS(=O)(=O)O)OC(OC5C(C(=O)O)OC(OC6C(COS(=O)(=O)O)OC(OC7C(C(=O)O)OC(Oc8ccc([N+](=O)[O-])cc8)C(O)C7O)C(NS(=O)(=O)O)C6O)C(OS(=O)(=O)O)C5O)C(NS(=O)(=O)O)C4O)C(OS(=O)(=O)O)C3O)C(NS(=O)(=O)O)C2OS(=O)(=O)O)C(O)C(O)C1OC1OC(COS(=O)(=O)O)C(O)C(O)C1NS(=O)(=O)O (stereo not shown) [Compound 2]
Antithrombin (AT)
  Kd: 8 nM
[1]
  endocytosis mediated by Stabilin-2 (internalization): very low internalization

## O=C(O)C1OC(OC2C(COS(=O)(=O)O)OC(OC3C(C(=O)O)OC(OC4C(COS(=O)(=O)O)OC(OC5C(C(=O)O)OC(OC6C(COS(=O)(=O)O)OC(OC7C(C(=O)O)OC(OC8C(COS(=O)(=O)O)OC(OC9C(C(=O)O)OC(Oc%10ccc([N+](=O)[O-])cc%10)C(O)C9O)C(NS(=O)(=O)O)C8O)C(OS(=O)(=O)O)C7O)C(NS(=O)(=O)O)C6O)C(OS(=O)(=O)O)C5O)C(NS(=O)(=O)O)C4O)C(OS(=O)(=O)O)C3O)C(NS(=O)(=O)O)C2OS(=O)(=O)O)C(O)C(O)C1OC1OC(COS(=O)(=O)O)C(O)C(O)C1NS(=O)(=O)O (stereo not shown) [Compound 3]
Antithrombin (AT)
  Kd: 5 nM
[1]
  endocytosis mediated by Stabilin-2 (internalization): significant endocytosis

## CC(=O)NC1C(OC2C(C(=O)O)OC(OC3C(COS(=O)(=O)O)OC(OC4C(C(=O)O)OC(OC5C(COS(=O)(=O)O)OC(OC6C(C(=O)O)OC(OC7C(COS(=O)(=O)O)OC(OC8C(C(=O)O)OC(OC9C(COS(=O)(=O)O)OC(OC%10C(C(=O)O)OC(OC%11C(COS(=O)(=O)O)OC(OC%12C(C(=O)O)OC(Oc%13ccc([N+](=O)[O-])cc%13)C(O)C%12O)C(NS(=O)(=O)O)C%11O)C(OS(=O)(=O)O)C%10O)C(NS(=O)(=O)O)C9O)C(OS(=O)(=O)O)C8O)C(NS(=O)(=O)O)C7O)C(OS(=O)(=O)O)C6O)C(NS(=O)(=O)O)C5O)C(OS(=O)(=O)O)C4O)C(NS(=O)(=O)O)C3OS(=O)(=O)O)C(O)C2O)OC(COS(=O)(=O)O)C(O)C1O (stereo not shown) [Compound 4]
Antithrombin (AT)
  Kd: 30 nM
[1]
  endocytosis mediated by Stabilin-2 (internalization): significant endocytosis

## CC(=O)NC1C(OC2C(C(=O)O)OC(OC3C(COS(=O)(=O)O)OC(OC4C(C(=O)O)OC(OC5C(COS(=O)(=O)O)OC(OC6C(C(=O)O)OC(OC7C(COS(=O)(=O)O)OC(OC8C(C(=O)O)OC(OC9C(COS(=O)(=O)O)OC(OC%10C(C(=O)O)OC(OC%11C(COS(=O)(=O)O)OC(OC%12C(C(=O)O)OC(Oc%13ccc([N+](=O)[O-])cc%13)C(O)C%12O)C(NS(=O)(=O)O)C%11O)C(OS(=O)(=O)O)C%10O)C(NS(=O)(=O)O)C9OS(=O)(=O)O)C(OS(=O)(=O)O)C8O)C(NS(=O)(=O)O)C7O)C(OS(=O)(=O)O)C6O)C(NS(=O)(=O)O)C5O)C(OS(=O)(=O)O)C4O)C(NS(=O)(=O)O)C3OS(=O)(=O)O)C(O)C2O)OC(COS(=O)(=O)O)C(O)C1O (stereo not shown) [Compound 5]
Antithrombin (AT)
  Kd: 28 nM
[1]
  endocytosis mediated by Stabilin-2 (internalization): significant endocytosis

From patent publication US9951149B2, “Reversible heparin molecules and methods of making and using the same” (The University of North Carolina at Chapel Hill, priority 2013, dated 2018)
